Assay results from ChEMBL document CHEMBL1949543, “Synthesis and evaluation of novel monosubstituted sulfonylurea derivatives as antituberculosis agents” (Eur J Med Chem, 2012).
In brackets after ≈: the same amount, converted by molar mass.

Legend:
[1] = Selectivity ratio of IC50 for human THP1 cells to MIC for isoniazid-, rifampin-, amikacin-, OLF-resistant Mycobacterium tuberculosis isolate H; format: functional, THP-1
[2] = system: Mycobacterium tuberculosis; experiment: Antituberculosis activity against isoniazid-, rifampin-resistant Mycobacterium tuberculosis isolate D; format: functional
[3] = system: Mycobacterium tuberculosis; experiment: Antituberculosis activity against isoniazid-, rifampin-, amikacin-, OLF-resistant Mycobacterium tuberculosis isolate J; format: functional
[4] = system: Mycobacterium tuberculosis; experiment: Antituberculosis activity against isoniazid-resistant Mycobacterium tuberculosis isolate C; format: functional
[5] = Selectivity ratio of IC50 for human THP1 cells to MIC for INH-resistant Mycobacterium tuberculosis isolate C; format: functional, THP-1
[6] = system: Mycobacterium tuberculosis; experiment: Antituberculosis activity against isoniazid-resistant Mycobacterium tuberculosis isolate B; format: functional
[7] = system: Mycobacterium tuberculosis; experiment: Antituberculosis activity against isoniazid-, rifampin-, amikacin-, OLF-resistant Mycobacterium tuberculosis isolate H; format: functional
[8] = Selectivity ratio of IC50 for human THP1 cells to MIC for isoniazid-, rifampin-,ethambutol-resistant Mycobacterium tuberculosis isolate G; format: functional, THP-1
[9] = system: Mycobacterium tuberculosis; experiment: Antituberculosis activity against isoniazid-, rifampin-,streptomycin-resistant Mycobacterium tuberculosis isolate E; format: functional
[10] = Selectivity ratio of IC50 for human THP1 cells to MIC for isoniazid-, rifampin-,ethambutol-resistant Mycobacterium tuberculosis isolate F; format: functional, THP-1
[11] = Selectivity ratio of IC50 for human THP1 cells to MIC for isoniazid-, rifampin-,kanamycin-,OLF-resistant Mycobacterium tuberculosis isolate I; format: functional, THP-1
[12] = Selectivity ratio of IC50 for human THP1 cells to MIC for isoniazid-, rifampin-,streptomycin-resistant Mycobacterium tuberculosis isolate E; format: functional, THP-1
[13] = system: Mycobacterium tuberculosis; experiment: Antituberculosis activity against isoniazid-, rifampin-,ethambutol-resistant Mycobacterium tuberculosis isolate F; format: functional
[14] = Selectivity ratio of IC50 for human THP1 cells to MIC for isoniazid-, rifampin-, amikacin-, OLF-resistant Mycobacterium tuberculosis isolate J; format: functional, THP-1
[15] = Selectivity ratio of IC50 for human THP1 cells to MIC for isoniazid-, rifampin-resistant Mycobacterium tuberculosis isolate D; format: functional, THP-1
[16] = system: Mycobacterium tuberculosis; experiment: Antituberculosis activity against isoniazid-, rifampin-,ethambutol-resistant Mycobacterium tuberculosis isolate G; format: functional
[17] = system: Mycobacterium tuberculosis; experiment: Antituberculosis activity against isoniazid-, rifampin-,kanamycin-,OLF-resistant Mycobacterium tuberculosis isolate I; format: functional
[18] = Selectivity ratio of IC50 for human THP1 cells to MIC for INH-resistant Mycobacterium tuberculosis isolate B; format: functional, THP-1

Structure (SMILES)	Selectivity ratio [1]	MIC [2]	MIC [3]	MIC [4]	Selectivity ratio [5]	MIC [6]	MIC [7]	Selectivity ratio [8]	MIC [9]	Selectivity ratio [10]	Selectivity ratio [11]	Selectivity ratio [12]	MIC [13]	Selectivity ratio [14]	Selectivity ratio [15]	MIC [16]	MIC [17]	Selectivity ratio [18]
COc1ccnc(NC(=O)NS(=O)(=O)c2cc(NC(=O)CCl)ccc2Cl)n1	10	10 µg/mL (≈ 23 µM)	10 µg/mL (≈ 23 µM)	10 µg/mL (≈ 23 µM)	10	10 µg/mL (≈ 23 µM)	10 µg/mL (≈ 23 µM)	10	10 µg/mL (≈ 23 µM)	10	10	10	10 µg/mL (≈ 23 µM)	10	10	10 µg/mL (≈ 23 µM)	10 µg/mL (≈ 23 µM)	10
Cc1ccnc(NC(=O)NS(=O)(=O)c2cc(NC(=O)CCl)ccc2Cl)n1	10	10 µg/mL (≈ 23.9 µM)	10 µg/mL (≈ 23.9 µM)	10 µg/mL (≈ 23.9 µM)	10	10 µg/mL (≈ 23.9 µM)	10 µg/mL (≈ 23.9 µM)	10	10 µg/mL (≈ 23.9 µM)	10	10	10	10 µg/mL (≈ 23.9 µM)	10	10	10 µg/mL (≈ 23.9 µM)	10 µg/mL (≈ 23.9 µM)	10
